# Experimental data taken from US6531288B1, “Methods to identify compounds that affect the expression level of the syntaxin-1 A encoding gene” (University of British Columbia, priority 1999, dated 2003).
# Starred links: 1 amine or outer side, 2 acyl side, 3 side chain; linkers in the order of their positions; H or OH if unused. Positions of bridges follow the written chain, without caps; N, C: chain ends. Non-standard residues stand in square brackets, D forms with d. Residues, ends and D or L forms follow the SMILES beside them. Chains are numbered I, II in the order given. Actinocin(9to1) = Cc1c2oc3c(C)ccc(C(=O)[*:1])c3nc-2c(C(=O)[*:2])c(N)c1=O; NMeV = CN[C@H](C(=O)O)C(C)C; Sar = CNCC(=O)O
# Key:
# syntaxin-1A [1] = test: Syntaxin-1A expression in untransfected HEK293 cells treated with agents that alter intracellular calcium; format: cell-based; conditions: for syntaxin-1A mRNA levels: untransfected cells / absence of α1A transfection
# syntaxin-1A [2] = test: Syntaxin-1A expression in cerebellar granule cells (endogenous P/Q type channels); format: cell-based
# Description: The foregoing results in HEK293 transfected cells were correlated with the endogenous P/Q type channels in neurons. Syntaxin-1A is basally expressed in cerebellar granule cells, but this is inhibited by ω Agatoxin IVA, which is known to inhibit calcium P/Q type channels specifically. […] Treatment of these cerebellar granule cells, which had been incubated in ω Agatoxin IVA with thapsigargin recovered the syntaxin-1A expression.
# Syntaxin-1A expression was inhibited by the same agents as had inhibited it in HEK293 cells including inhibitors of ryanodine —or IP3—induced calcium release from stores, of CaM kinase II/IV, and of PKA, or MAPKK.
# syntaxin-1A [3] = test: Syntaxin-1A expression (mRNA/protein) in HEK293 cells transfected with the α1A P/Q type calcium channel; format: cell-based, human; conditions: for calcium dependent induction of syntaxin-1A: α1A transfected cells
compound,measurement,setting,value
C/C=C(/C)C(=O)O[C@H]1C(C)=C2[C@H]([C@@H]1OC(=O)CCCCCCC)[C@@](C)(OC(C)=O)C[C@H](OC(=O)CCC)[C@@]1(O)[C@H]2OC(=O)[C@@]1(C)O [thapsigargin],syntaxin-1A expression,syntaxin-1A [1]; untransfected cells,stimulated
same,syntaxin-1A expression after P/Q block,syntaxin-1A [2]; cerebellar granule cells which had been incubated in ω Agatoxin IVA,recovered
CC(=O)OCOC(=O)CN(CCOCCOCCN(CC(=O)OCOC(C)=O)CC(=O)OCOC(C)=O)CC(=O)OCOC(C)=O [EGTA-AM],calcium dependent induction of syntaxin-1A,syntaxin-1A [3],blocked
Cn1c(=O)c2c(ncn2C)n(C)c1=O [caffeine],calcium release from ryanodine- and IP3-sensitive stores,syntaxin-1A [1]; untransfected cells,activated
same,syntaxin-1A mRNA levels,syntaxin-1A [1],stimulated
C[C@H](CCC(=O)O)C[C@H](C)C[C@H](C)C(=O)/C=C(\O)[C@H](C)C[C@H](C)C/C=C/[C@@H](C)[C@@H](O)[C@@H](C)[C@@H](O)C[C@@H]1CC[C@@](C)([C@H]2CC[C@@](C)([C@@H](C)O)O2)O1 [ionomycin],levels giving maximal activation of syntaxin-1A production,syntaxin-1A [1],50 to 200 nM
"Cc1c2oc3c(C)ccc(C(=O)N[C@@H]4C(=O)N[C@H](C(C)C)C(=O)N5CCC[C@H]5C(=O)N(C)CC(=O)N(C)[C@@H](C(C)C)C(=O)O[C@@H]4C)c3nc-2c(C(=O)N[C@@H]2C(=O)N[C@H](C(C)C)C(=O)N3CCC[C@H]3C(=O)N(C)CC(=O)N(C)[C@@H](C(C)C)C(=O)O[C@@H]2C)c(N)c1=O [actinomycin D] (I: T[dV]P[Sar][NMeV] / II: T[dV]P[Sar][NMeV]; ester I:1-I:C, II:1-II:C; linker I:N-II:N via Actinocin(9to1))",mRNA corresponding to syntaxin-1A,syntaxin-1A [3]; HEK293 cells transfected with the α1A P/Q type calcium channel,inhibited
ω Agatoxin IVA,"syntaxin-1A expression (basal, calcium dependent)",syntaxin-1A [2]; cerebellar granule cells,inhibited
C[N+](C)(C)CCOC(N)=O [carbachol],calcium release from ryanodine- and IP3-sensitive stores,syntaxin-1A [1]; untransfected cells,activated
same,syntaxin-1A mRNA levels,syntaxin-1A [1],stimulated
CC(=O)OCOC(=O)CN(CC(=O)OCOC(C)=O)c1ccccc1OCCOc1ccccc1N(CC(=O)OCOC(C)=O)CC(=O)OCOC(C)=O [BAPTA-AM],calcium dependent induction of syntaxin-1A,syntaxin-1A [3],blocked
